Experimental data from patent US20210186879A1, “TARGETED DELIVERY OF HYDROPHILIC DRUGS TO LUNG” (DOUBLE BOND PHARMACEUTICALS AB, priority 2016, published 2021).

Legend:
[1] = In vivo distribution of doxorubicin in lung and blood serum of Wistar rats; details: 4 hours
Method: (§1) For in vivo investigation both rats and rabbits were used: female Wistar rats 60-75 days old weighing 300 g±30 g and Californian breed male rabbits 75-90 days old weighing 2000 g±250 g were selected. […] Different doxorubicin containing formulations with a total doxorubicin dose 5 mg/kg were administered via a single bolus injection into the tail for rats and via a slow flow of 1 ml/min in the marginal ear vein for rabbits.
(§2) Five or six pieces of lung tissue of a total weight of about 1 g were taken from different parts of a lung. The samples were homogenized with a solution of aqueous ethanol containing HCl for 20 s at 7000 rpm and for 10 s at 11000 rpm. […] Doxorubicin and doxycycline (DOC) concentration in the final supernatant was determined with fluorometric analysis and high-performance liquid chromatography respectively.
An aqueous solution of doxorubicin hydrochloride, an aqueous suspension of doxorubicin alkane sulfate and an aqueous suspension of doxorubicin alkyl sulfonate were administered via a single bolus injection into the tail Animals were sacrificed after 4 hours after administered via a single bolus injection into the tail; total doxorubicin dose 5 mg/kg. […] The results are summarized in Table 7 and illustrated in FIG. 10.

[2] = In vivo distribution of doxorubicin in lung and femoral muscle of Californian rabbits; details: 4 hours
Method: as §1, §2
Suspension of complexes of doxorubicin and doxorubicin hydrochloride were administered via a slow flow of 1 ml/min to rabbits in the marginal ear vein with a total doxorubicin dose 1.25 mg/kg. Animals were sacrificed after 4 hours after administration. Concentration of doxorubicin in lung and femoral muscle was determined in accordance to the procedure described above. As it is seen from table 8 the concentration of doxorubicin in femoral muscle as a representation of a system concentration is not increased for complexes compared with doxorubicin hydrochloride.

[3] = rat, in vivo, iv, 5 mg/kg
[4] = cited from earlier work
[5] = 5 mg/kg i.v. single bolus, ± SD
[6] = 1.25 mg/kg i.v. marginal ear vein, ± SD

Blood serum DOX [1, 5] [µg/kg]	Lung tissue DOX [1, 5] [µg/kg]	Blood serum Relative difference ([1]; relative to control CI-DOX (1))	Lung tissue Relative difference ([1]; relative to control CI-DOX (1))	Femoral muscle DOX [2, 6] [µg/kg]	Lung tissue DOX [2, 6] [µg/kg]	Femoral muscle Relative difference ([2]; relative to control CI-DOX (1))	Lung tissue Relative difference ([2]; relative to control CI-DOX (1))	Particle size particularly advantageous in targeting lung tissue [3]	SMILES	Cumulative dose at which the risk of developing cardiac side effects increases dramatically [4] [mg/m^2]
0.023 ± 0.009	3.17 ± 0.33	1.21	4.46	0.06 ± 0.01	6.14 ± 0.53	0.26	7.40	40-90 μm	CCCCCCCCCCCCCCOS(=O)(=O)O.COc1cccc2c1C(=O)c1c(O)c3c(c(O)c1C2=O)CC(O)(C(=O)CO)CC3OC1CC(N)C(O)C(C)O1 (stereo not shown) [doxorubicin CnH2n+1OSO3^− n=14]	
									COc1cccc2c1C(=O)c1c(O)c3c(c(O)c1C2=O)C[C@@](O)(C(=O)CO)C[C@@H]3O[C@H]1C[C@H](N)[C@H](O)[C@H](C)O1 [doxorubicin]	≥ 550
